Assay results reported in patent US20260176284A1, “Compounds with Anti-KRAS Mutated Tumor Activity” (Trasveda Ltd., priority 2022, published 2026).

Experiments:
[1] = system: KRAS G12D mutated AGS human gastric adenocarcinoma cells; test: Proliferation inhibition of KRAS G12D mutant AGS cells (CellTiter-Glo, 3 days; IC50 and single-point inhibition rate at 1 μM); format: cell-based; settings: 72 h, 3 days incubation, max concentration 10 μM
Protocol: This experiment assessed and validated the proliferation inhibitory activity of some compounds of the present invention against KRAS G12D mutant AGS cells.
Incubate at 37° C., 5% CO2, 95% humidity.
The following materials, instruments, and reagents were used in this experiment: Fetal Bovine Serum FBS (GIBCO, Cat #10099-141); CellTiter-Glo® Luminescent Cell Viability Assay (Promega, Cat #G7572); 96-well clear flat-bottom black-wall plate (Corning®, Cat #3603); SpectraMax multimode microplate reader (MD, 2104-0010A); CO2 Incubator (Thermo Scientific, Model 3100 Series); Biosafety cabinet (Thermo Scientific, Model 1300 Series A2); Inverted microscope (Olympus, CKX41SF); AGS cell line was purchased from Nanjing Kebai Biotechnology Co., Ltd., under the lot number CBP60476.
Cell culture and inoculation: The cells in the logarithmic growth phase were harvested, and cell counting was performed using a platelet counter. The cell viability was detected by Trypan Blue exclusion method to ensure that the cell viability was above 90%. The cell concentration was adjusted. Then, 90 μL of the cell suspension was added to each well of a 96-well plate respectively, and the cells in the 96-well plate were cultured at 37° C. and 5% CO2.
Drug dilution and addition: a) For the preparation of drugs for single-point inhibition rate determination: A 10-fold concentrated drug solution was prepared. 10 μL of the drug solution was added to each well of the 96-well plate inoculated with cells to make the working concentration 1 μM, and three replicate wells were set for each drug concentration; b) For the preparation of drugs for IC50 determination: A 10-fold concentrated drug solution was prepared. 10 μL of the drug solution was added to each well of the 96-well plate inoculated with cells to make the maximum working concentration 10 μM, with a 3.16× dilution and a total of 9 concentrations. Three replicate wells were set for each drug concentration. The cells in the 96-well plate with the added drugs were incubated at 37° C. and 5% CO2 for another 3 days, and then the CTG assay was performed.
The CTG reagent was thawed, and the cell plate was equilibrated to room temperature for 30 minutes. An equal volume of CTG solution was added to each well, and the plate was shaken on an orbital shaker for 5 minutes to lyse the cells. The cell plate was placed at room temperature for 20 minutes to stabilize the luminescence signal, and then the luminescence value was read.
The data were analyzed using GraphPad Prism 7.0 software. The data were fitted by nonlinear S-curve regression to obtain the dose-response curve, and the IC50 value was calculated accordingly.

[2] = system: KRAS G12D mutated AGS human gastric adenocarcinoma cells; test: Proliferation inhibition of KRAS G12D mutant AGS cells, another experiment with similar protocol (includes MRTX1133); format: cell-based
Protocol: In another experiment, using a protocol similar to the one described above, the inhibitory activity of some representative compounds of the present invention against KRAS G12D mutated AGS human gastric adenocarcinoma cells was determined.
The synthesis of compound MRTX1133 was performed according to the method described in J. Med. Chem. 2022, 65, 4, 3123-3133.

Structure (SMILES)	IC50 [1]	IC50 ([2]; Homo sapiens)	also measured
C#Cc1c(F)ccc2cc(O)cc(-c3c(F)cc4c(N5CC6CCC(C5)N6)nc(OCC5(F)CCCN(C)C5)nc4c3F)c12 (atropisomer, axis not shown; (Ra)) [Example 1, (Ra)-4-(4-((1R,5S)-3,8-diazabicyclo[3.2.1]octan-3-yl)-6,8-difluoro-2-(3-fluoro-1-methylpiperidin-3-yl)methoxy)quinazolin-7-yl)-5-ethynyl-6-fluoronaphthalen-2-ol·diformate]	94 nM	–	–
C#Cc1c(F)ccc2cc(O)cc(-c3c(F)cc4c(N5CC6CCC(C5)N6)nc(OCC5(C)CCCN(C)C5)nc4c3F)c12 (atropisomer, axis not shown; (Ra)) [Example 2, (Ra)-4-(4-((1R,5S)-3,8-diazabicyclo[3.2.1]octan-3-yl)-2-((1,3-dimethylpiperidin-3-yl)methoxy)-6,8-difluoroquinazolin-7-yl)-5-ethynyl-6-fluoronaphthalen-2-ol·dicarboxylate]	50 nM	–	–
C#Cc1c(F)ccc2cc(O)cc(-c3c(F)cc4c(N5CC6CCC(C5)N6)nc(OCC5(C)CCCN(CCOC)C5)nc4c3F)c12 (atropisomer, axis not shown; (Ra)) [Example 3, (Ra)-4-(4-((1R,5S)-3,8-diazabicyclo[3.2.1]octan-3-yl)-6,8-difluoro-2-(1-(2-methoxyethyl)-3-methylpiperidin-3-yl)methoxy)quinazolin-7-yl)-5-ethynyl-6-fluoronaphthalen-2-ol·formate]	158 nM	–	–
C#Cc1c(F)ccc2cc(O)cc(-c3c(F)cc4c(N5CC6CCC(C5)N6)nc(OCC5(C)CCCN(CCF)C5)nc4c3F)c12 (atropisomer, axis not shown; (Ra)) [Example 4, (Ra)-4-(4-((1R,5S)-3,8-diazabicyclo[3.2.1]octan-3-yl)-6,8-difluoro-2-(1-(2-fluoroethyl)-3-methylpiperidin-3-yl)methoxy)quinazolin-7-yl)-5-ethynyl-6-fluoronaphthalen-2-ol·diformate]	88 nM	–	–
C#Cc1c(F)ccc2cc(O)cc(-c3c(F)cc4c(N5CC6CCC(C5)N6)nc(OCC5(C)CN(C)CCC5OC)nc4c3F)c12 (atropisomer, axis not shown; (Ra)) [Example 5, (Ra)-4-(4-(((1R,5S)-3,8-diazabicyclo[3.2.1]octan-3-yl)-6,8-difluoro-2-(4-methoxy-1,3-dimethylpiperidin-3-yl)methoxy)quinazolin-7-yl)-5-ethynyl-6-fluoronaphthalen-2-ol·diformate]	175 nM	–	–
C#Cc1c(F)ccc2cc(O)cc(-c3c(F)cc4c(N5CC6CCC(C5)N6)nc(OCC5(C)CN(C)CCC5(F)F)nc4c3F)c12 (atropisomer, axis not shown; (Ra)) [Example 6, (Ra)-4-(4-((1R,5S)-3,8-diazabicyclo[3.2.1]octan-3-yl)-2-((4,4-difluoro-1,3-dimethylpiperidin-3-yl)methoxy)-6,8-difluoroquinazolin-7-yl)-5-ethynyl-6-fluoronaphthalen-2-ol]	55 nM	–	–
C#Cc1c(F)ccc2cc(O)cc(-c3c(F)cc4c(N5CC6CCC(C5)N6)nc(OCC56CC5CCN(C)C6)nc4c3F)c12 (atropisomer, axis not shown; (Ra)) [Example 9, (Ra)-4-(4-((1R,5S)-3,8-diazabicyclo[3.2.1]octan-3-yl)-6,8-difluoro-2-((3-methyl-3-azabicyclo[4.1.0]heptan-1-yl)methoxy)quinazolin-7-yl)-5-ethynyl-6-fluoronaphthalen-2-ol·diformate]	347 nM	–	–
C#Cc1c(F)ccc2cc(O)cc(-c3c(F)cc4c(N5CC6CCC(C5)N6)nc(OCC5COCCN(C)C5)nc4c3F)c12 (stereo not shown) [Example 7]	781 nM	–	–
C#Cc1c(F)ccc2cc(O)cc(-c3c(F)cc4c(N5CC6CCC(C5)N6)nc(OCC5(C)CCCCN(CCOC)C5)nc4c3F)c12 [Example 8, 4-(4-((1R,5S)-3,8-diazabicyclo[3.2.1]octane-3-yl)-6,8-difluoro-2-((1-(2-methoxyethyl)-3-methylazepan-3-yl)methoxy)quinazolin-7-yl)-5-ethynyl-6-fluoronaphthalen-2-ol·triformate]	251 nM	–	–
C#Cc1c(F)ccc2cc(O)cc(-c3nc(OC)c4c(N5C[C@H]6CC[C@@H](C5)N6)nc(OC[C@]5(C)CN(C)CC[C@@H]5CF)nc4c3F)c12 [Example 260, 4-(4-((1R,5S)-3,8-diazabicyclo[3.2.1]octan-3-yl)-8-fluoro-2-(((3S,4S)-4-(fluoromethyl)-1,3-dimethylpiperidin-3-yl)methoxy)-5-methoxypyrido[4,3-d]pyrimidin-7-yl)-5-ethynyl-6-fluoronaphthalen-2-ol]	–	3 nM	–
C#Cc1c(F)ccc2cc(O)cc(-c3nc(OC)c4c(N5C[C@H]6CC[C@@H](C5)N6)nc(OC[C@]5(C)CN(C)CC[C@@H]5F)nc4c3F)c12 [Example 262, 4-(4-((1R,5S)-3,8-diazabicyclo[3.2.1]octan-3-yl)-8-fluoro-2-(((3S,4S)-4-fluoro-1,3-dimethylpiperidin-3-yl)methoxy)-5-methoxypyrido[4,3-d]pyrimidin-7-yl)-5-ethynyl-6-fluoronaphthalen-2-ol]	–	15 nM	–
C#Cc1c(F)ccc2cc(O)cc(-c3nc(OC)c4c(N5C[C@H]6CC[C@@H](C5)N6)nc(OC[C@]5(C)CN(C)CC[C@H]5F)nc4c3F)c12 [Example 263, 4-(4-((1R,5S)-3,8-diazabicyclo[3.2.1]octan-3-yl)-8-fluoro-2-(((3S,4R)-4-fluoro-1,3-dimethylpiperidin-3-yl)methoxy)-5-methoxypyrido[4,3-d]pyrimidin-7-yl)-5-ethynyl-6-fluoronaphthalen-2-ol]	–	12 nM	–
CN1CC[C@H](C(F)F)[C@](C)(COc2nc(N3C[C@H]4CC[C@@H](C3)N4)c3cc(Cl)c(-c4cccc5sc(N)c(C#N)c45)c(F)c3n2)C1 [Example 312, 4-(4-((1R,5S)-3,8-diazabicyclo[3.2.1]octan-3-yl)-6-chloro-2-(((3S,4S)-4-(difluoromethyl)-1,3-dimethylpiperidin-3-yl)methoxy)-8-fluoroquinazolin-7-yl)-2-aminobenzo[b]thiophen-3-nitrile]	–	25 nM	–
CN1CC[C@H](C(F)F)[C@](C)(COc2nc(N3C[C@H]4CC[C@@H](C3)N4)c3cc(Cl)c(-c4cccc5sc(N)c(C#N)c45)c(F)c3n2)C1 [Example 312-1, (4-((1R,5S)-3,8-diazabicyclo[3.2.1]octan-3-yl)-6-chloro-2-(((3S,4S)-4-(difluoromethyl)-1,3-dimethylpiperidin-3-yl)methoxy)-8-fluoroquinazolin-7-yl)-2-aminobenzo[b]thiophene-3-carbonitrile]	–	–	IC50 [2]: 11 nM
CN1CC/C(=C\F)[C@](C)(COc2nc(N3C[C@H]4CC[C@@H](C3)N4)c3cc(C(F)(F)F)c(-c4cccc5sc(N)c(C#N)c45)c(F)c3n2)C1 [Example 318, 4-(4-((1R,5S)-3,8-diazabicyclo[3.2.1]octan-3-yl)-8-fluoro-2-(((S,E)-4-(fluoromethylene)-1,3-dimethylpiperidin-3-yl)methoxy)-6-(trifluoromethyl)quinazolin-7-yl)-2-aminobenzo[b]thiophene-3-carbonitrile]	–	28 nM	–
CN1CC[C@H](C(F)F)[C@](C)(COc2nc(N3C[C@H]4CC[C@@H](C3)N4)c3cc(C#N)c(-c4cccc5sc(N)c(C#N)c45)c(F)c3n2)C1 [Example 328, 7-(2-amino-3-cyanobenzo[b]thiophen-4-yl)-4-((1R,5S)-3,8-diazabicyclo[3.2.1]octan-3-yl)-2-(((3S,4S)-4-(difluoromethyl)-1,3-dimethylpiperidin-3-yl)methoxy)-8-fluoroquinazoline-6-carbonitrile]	–	45 nM	–
